PubChem BioAssay AID179 (DTP/NCI, 2004)
pEC50, pIC50: −log10 of the molar value. Calls of active or inactive are those of the source.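 How the source made its calls: active means compounds giving half or more protection of infected cells from virus-caused growth loss, again on retest; inactive means the rest.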

System: CEM cells HIV-1 protection, formazan growth assay
Assay: NCI AIDS Antiviral Assay
Details: for pIC50: measured here: growth of uninfected CEM cells
Outline: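 Human CEM cells, uninfected and HIV-1-infected, received five drug concentrations, and growth was read by soluble formazan assay. Compounds giving at least 50% protection were retested; reproducible 100% protection defined confirmed active.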

Row | Structure (SMILES) | pEC50 | pIC50 | outcome
1 | Cc1ccc(S(=O)(=O)n2cc(C#N)c(C#N)c2)cc1 | < 3.70 | 4.24 | 
2 | O=C1CSC(c2ccccc2[N+](=O)[O-])N1c1ccc(-c2ccc(-n3c(-c4ccccc4)nc4ccccc4c3=O)cc2)cc1 (stereo not given) | < 3.70 | 4.02 | 
3 | CCN(CC)c1ccc2c(c1)Oc1ccc(N(C(C)=O)c3ccccc3)cc1C21OC(=O)c2ccccc21 (stereo not given) | < 3.70 | 5.22 | 
4 | COc1cc(OC)c(C#N)c(OC)c1C |  |  | inactive
5 | CO/N=C1\CC(NC(=O)C(F)(F)F)c2ccsc21 (stereo not given) | < 3.70 | < 3.70 | 
6 | CCN(CC)C(=O)N1CN(c2ccccc2)C2(CCN(CCCSc3ccc(F)cc3)CC2)C1=O | < 3.70 | 5.01 | 
7 | CN1C(=O)C(C)(C)NS1(=O)=O |  |  | inactive
8 | c1ccc(N=C2c3ccccc3C3=NCCCN32)cc1 | < 4.00 | < 4.00 | 
9 | COc1nc2c(c(=O)n1C)N[C@@H]1[C@@H](O)[C@H](O)CO[C@@H]1N2 | < 3.70 | < 3.70 | 
10 | CCCCCNC(=O)C(O)C(O)C(=O)NCCCCC (stereo not given) | < 3.90 | < 3.90 | 
11 | CC(=N/N=C/c1ccccn1)/C(C)=N/N=C(C)/C(C)=N/N=C(C)/C(C)=N/N=C(C)/C(C)=N\N=C\c1ccccn1 |  |  | inactive
12 | Nc1c(S(=O)(=O)O)cc(S(=O)(=O)O)c2ccc(N=Nc3ccc(/C=C/c4ccc(N=Nc5ccc6c(S(=O)(=O)O)cc(S(=O)(=O)O)c(N)c6c5O)cc4S(=O)(=O)O)c(S(=O)(=O)O)c3)c(O)c12 | 4.99 | 4.29 | 
13 | O=c1[nH]c2cc(Cl)ccc2c2ccc(Cl)cc12 | < 3.70 | < 3.70 | 
14 | CCCC(/C=N/N=C(N)N)=N\N=C(N)N | < 4.08 | < 4.08 | 
15 | O=c1c2cc([N+](=O)[O-])ccc2n2n1CCCC2 | < 3.70 | < 3.70 | 
16 | Cc1cn(C2CC(NC(=O)N(C)O)C(CO)O2)c(=O)[nH]c1=O (stereo not given) | < 3.70 | < 3.70 | 
17 | O=NNc1ccc(-c2ccccc2)cn1 | < 3.70 | 4.36 | 
18 | O=c1[nH]c(=O)n(CCOc2ccccc2)cc1Nc1ccccc1 | < 3.70 | < 3.70 | 
19 | COc1cc(-c2cc(=O)c3c(O)c(OC)c(OC)c(OC)c3o2)cc(OC)c1OC | < 4.15 | < 4.15 | 
20 | CCOC(=O)C(=O)Nc1nc2ccc(OC)cc2s1 | < 3.35 | < 3.35 | 
21 | CCOC(=O)OC(=S)N(C1CCCCC1)C1CCCCC1 | < 3.70 | 4.01 | 
22 | CCCCCCCCCCCCCC(=O)NCO |  |  | inactive

Row | Structure (SMILES) | pEC50 | pIC50 | outcome
23 | COC(=O)C1C(=O)CC(C)(O)C(C(=O)OC)C1c1ccc(N(C)C)cc1 (stereo not given) | < 3.70 | < 3.70 | 
24 | O=C1OC(c2ccccc2)c2cccnc21 (stereo not given) | < 2.93 | < 2.93 | 
25 | CSCCCNC(=O)c1csc(-c2csc(CCNC(=O)CNC(=O)CNC(=O)OC(C)(C)C)n2)n1 | < 3.35 | 3.67 | 
26 | N#CC(C(=O)C(=O)Nc1c(Cl)cccc1Cl)c1ccccc1 (stereo not given) |  |  | inactive
27 | N#C/C(=C\c1cccc(C#N)c1)C(=O)c1ccccc1 | < 3.94 | 4.80 | 
28 | CN1CCc2c([nH]c3ccccc23)C1 | < 3.70 | < 3.70 | 
29 | COc1cccc2c1C(=O)c1c(O)c3c(c(O)c1C2=O)C[C@@](O)(C(=O)CO)C[C@@H]3OC1CC(N)C(O)C(C)O1 (stereo not given in full) | < 5.60 |  | 
30 | Cc1ccc(C2NC(=S)N3C(c4ccc(C)cc4)NC(=S)N23)cc1 (stereo not given) | < 3.70 | 5.47 | 
31 | CC(=O)OC1C(OCc2cc(=O)oc3c4c(c5c(c23)OC(C)(C)CC5)O[C@@H](C)[C@H](C)[C@@H]4O)OC(CO)C(O)C1O (stereo not given in full) | < 3.70 | 4.36 | 
32 | CC12C(=O)N(CCN)C(=O)C1C1c3ccccc3C2c2ccccc21 (stereo not given) |  |  | inactive
33 | CC1CNC(=S)SSC(=S)N1 (stereo not given) | < 3.70 | 4.60 | 
34 | CSc1nc2c(=O)oc(-c3ccccc3)nc2s1 | < 3.70 | 5.22 | 
35 | CN1CCC(c2ccccc2)(c2ccccc2)C(O)C1 (stereo not given) |  |  | inactive
36 | O=C(Nc1ccc(Cl)cc1)NS(=O)(=O)c1ccc2c(c1)CCC2 | < 3.15 | 4.32 | 
37 | O=C(OC1C#CCSCC#C/C=C\1)c1ccc2c(c1)C(=O)c1ccccc1C2=O (stereo not given) | < 3.70 | 4.16 | 
38 | Cc1cccc(C2NC(=S)N3C(c4cccc(C)c4)NC(=S)N23)c1 (stereo not given) |  |  | inactive
39 | COc1ccc(C2C(C#N)=C(S)N(C3OC(CO)C(O)C(O)C3O)C(C)=C2C(C)=O)cc1 (stereo not given) | < 3.70 | 4.05 | 
40 | COc1cc(Br)c(/C(=C\c2ccccc2N)C(=O)O)cc1OC |  |  | inactive
41 | C[C@@H]1C(=O)c2c(O)cc(O)cc2O[C@@H]1C | < 3.70 | < 3.70 | 
42 | Cc1cc([N+](=O)[O-])c(=O)[nH]c1C | < 2.83 | 3.08 | 
43 | CC1C(c2ccc3c(c2)OCO3)c2cc3c(cc2OC1N1CCOCC1)OCO3 (stereo not given) | < 3.70 | 4.97 | 
44 | O=C1c2cc(Cl)ccc2OC2CCON12 (stereo not given) | < 3.70 | < 3.70 | 

Row | Structure (SMILES) | pEC50 | pIC50 | outcome
45 | COc1cc(N=Nc2ccc(S(=O)(=O)O)cc2)c(C)cc1N=Nc1cc(S(=O)(=O)O)c(NC(=O)c2ccc(N)cc2)cc1NC(C)=O | 4.88 | < 3.70 | 
46 | Cc1[nH]c2ccccc2c1C1Cc2ccccc2N1C(=O)/C=C/C(=O)O (stereo not given) | < 3.14 | 3.88 | 
47 | COC(=O)C1=C(C(=O)OC)C2C=CC1C1C(Cl)=C(Cl)C21 (stereo not given) |  |  | inactive
48 | C=CCCC1(CCP(=O)(c2ccccc2)c2ccccc2)OCCO1 | < 3.15 | 3.81 | 
49 | O=C(NNc1ccccc1)C(O)C(O)C(O)C(O)C(O)CO (stereo not given) |  |  | inactive
50 | COc1ccc(NC(=O)CC(=O)n2nc(-c3ccccc3)c(N=Nc3ccccc3C(=O)O)c2-c2ccccc2)cc1 | < 4.75 | < 4.75 | 
51 | O=C1Nc2ccccc2Nc2nc3cccccc-3c21 | < 4.00 | < 4.00 | 
52 | c1ncc(C23C4C5C6C4C2C6C53)[nH]1 (stereo not given) | < 3.70 | 3.81 | 
53 | CN1C(=O)c2ccccc2Sc2ccccc21 | 5.19 | 3.94 | 
54 | CC1=CC(=O)N(n2c(Cc3ccc(Cl)cc3)n[nH]c2=O)C1=O | < 3.70 | < 3.70 | 
55 | COC(=O)[C@@H](Cc1ccccc1)N1O[C@]12CCCC[C@@H]2NC(=O)OC(C)(C)C (stereo not given in full) | < 3.70 | 4.49 | 
56 | C/C=C(/CCCCCOCOCCOC)[Si](C)(C)C | < 3.49 | < 3.49 | 
57 | Cc1ccc(N/N=c2\c3nc4ccccc4nc2n(-c2ccccc2C)c(=S)n3-c2ccc(C)cc2)cc1 |  |  | inactive
58 | O=C(O/N=C1/CCC/C1=C\c1ccccc1)c1ccc([N+](=O)[O-])cc1 |  |  | inactive
59 | CC(=O)OCC(=O)[C@@]1(O)CC[C@H]2[C@@H]3CCC4=CC(=O)C[C@H](SC(C)=O)[C@]4(C)[C@H]3CC[C@@]21C | < 3.70 | 3.93 | 
60 | CC1(C)C(=O)/C=C\C(=O)C(C)(C)C(=O)/C=C\C(=O)C(C)(C)C(=O)/C=C\C(=O)C(C)(C)C(=O)/C=C\C1=O |  |  | inactive
61 | O=S(=O)(SCCCCSS(=O)(=O)c1ccc(Cl)cc1)c1ccc(Cl)cc1 | 5.09 | 5.02 | 
62 | CC(C)(N)Cc1ccccc1Cl | < 3.70 | < 3.70 | 
63 | O=C1N2CCNc3ccccc3C(c3ccccc3)N1CC2 (stereo not given) | < 3.70 | 4.73 | 
64 | O=C(/C=C/c1ccccc1)c1ccc(Oc2ccccc2)cc1 | < 3.70 | 4.63 | 
65 | CCCCc1ccc(Nc2nc(Cl)c3[nH]cnc3n2)cc1 | < 3.70 | 4.58 | 
